Reference: patent US5512573A, “Use of phthaloylhydrazide derivatives as anti-hypoxic and defensive agents” (priority 1993, dated 1996)
Read-outs that look alike come from different tables or passages of the source.

Experiments:
[1] = tested on: high-level hypoxia in male mice
Description: Experiments to test the resistance of the animals to high-level hypoxia were performed on 120 male mice weighing 18 to 20 g, and having reached sexual maturity.
Five minutes before the experiment, the animals were given the following doses intramuscularly:
the first group (control group), 0.1 ml of physiological solution;
the second group (test group), a 20% oil solution in a dose of 30 mg/kg;
the third group, 5-aminophthaloylhydrazide in a dose of 30 mg/kg;
the fourth group, 5-aminophthaloylhydrazide in a dose of 60 mg/kg;
the fifth group, 5-aminophthaloylhydrazide in a dose of 80 mg/kg;
the sixth group, 5-aminophthaloylhydrazide in a dose of 150 mg/kg;
the seventh group, the drug in a dose of 200 mg/kg.
The period of tolerance to hypoxia was determined by raising the animals to an altitude of 10,400 meters at the speed of 100 meters per second.

mice, rats = details: oral and i.p., 500 and 2500 mg/kg, 14 days
Description: Acute toxicity tests were performed on two animal species (mice, rats). More than 80 mice and 100 rats were used. The pharmaceutical was administered orally and intraperitoneally in doses of 500 and 2500 mg/kg (individual doses). The period of observation was 14 days.

psoriasis = tested on: psoriasis
Description: Patient, ill for 5 years. Was cured in the hospital several times during that period. Complained about itching, general weakness, unpleasant sensations in parts of the skin. […] Diagnosis: psoriasis approaching the acute phase.
The drug was administered intravenously to the patient.

female pregnant rats = details: 60 mg/kg i.p.
Description: Teratogenic tests and embryotoxicity tests were performed on 58 female pregnant rats. A single dose was injected intraperitoneally on days 1, 3, 7, 10, 14 and 17 of gestation (60 mg/kg). The rats were decapitated on day 21 of the pregnancy and the uteruses and fetuses were examined.

[2] = tested on: leukocytes in ischemic tissue; surviving animals; details: intramuscular injections, p>0.05
physchem = details: octanol/water, pH 7.4
guinea pigs = tested on: guinea pigs
Excerpt: The allergenic activity of the drug was examined in guinea pigs.

Hexenalum-induced sleep = details: 10 to 30 mg/kg, 15 min before Hexenalum 80 mg/kg
Description: The effect of the drug on the length of Hexenalum-induced anesthesia was studied, i.e., the drug was administered in doses of 10 to 30 mg per kilogram of body weight, 15 minutes before the administration of the Hexenalum solution in a dose of 80 mg/kg.

[3] = tested on: skin transplant rejection in chinchillas; details: intravenous, p<0.01
Description: The experiments involved 30 chinchillas from which a strip of skin was removed measuring 2×2 cm. The resulting lesion was covered by an outside transplant. The animals were divided into three groups.
The first group was treated with traditional therapy (prednisolone and cyclosporine); the second group was given 5aminophthaloylhydrazide daily in a dose of 150 mg/kg; the third group received a combined treatment.
To assess the efficacy of the drug, the period before the rejection was measured and morphological studies were conducted.

[4] = tested on: brain ischemia (carotid tying) in mice; assay: Example 4: carotid tying and release in mice; assay type: in vivo
Description: We performed experiments on 50 mice of the pyramid by tying the carotid under light anesthesia. After 7 minutes, we released the tie and restored the blood circulation in the ischemic area.

animal organisms = assay: Pharmacological studies, general toxicity statement; details: in vivo
[5] = Summary of experiments on phthaloylhydrazide derivatives; assay type: in vivo
[6] = tested on: Corazolum- and strychnine-induced convulsions; details: 40 and 80 mg/kg
transplant rejection = assay: Skin transplant from another animal (description); assay type: in vivo; details: 100 to 200 mg/kg
Excerpt: Treatment started on the second day following a skin transplant from another animal and continued for 45 to 50 days.

[7] = tested on: S. typhi TA 100, TA 102, and TA 97; assay: Mutagenicity, Ames' bacterial testing method; details: 0.01 and 2 mg/ml; rat liver microsomes
Description: Mutagenicity was measured by means of Ames' bacterial testing method. The tests were performed with strains of S. typhi TA 100, TA 102, and TA 97. The microsome activator method was used whereby rat liver was induced with methylcolanthrene.

Question: For `Nc1cccc2c(=O)[nH][nH]c(=O)c12` [5-aminophthaloylhydrazide, 5-amino-2,3-dihydrophthalazine-1,2 dione], which “therapeutic effectiveness vs Dibunolo” value ([1]; 30 mg/kg) is on record?
Answer: less therapeutically effective than the known antioxidant Dibunolo

Question: And the “therapeutic effectiveness vs Dibunolo” value ([1]; 100 mg, p<0.001)?
Answer: exceeded that of Dibunolo in a reliable manner

Question: And the “dose with the greatest therapeutic effect” value ([1]; intramuscular)?
Answer: 80 mg/kg

Question: What about the “extension of life under high-level hypoxia” value ([1]; intramuscular, all doses) of the same compound?
Answer: extended life under conditions of high-level hypoxia in all cases

Question: What about the “therapeutic effect on last increase in dose” value ([1]; last increase in administered amount) of the same compound?
Answer: did not increase the therapeutic effect achieved

Question: What about the “morphological alteration of liver, kidneys, heart and brain” value (mice, rats) of the same compound?
Answer: No morphological alteration was observed

Question: And the “percentage of lethal outcome” value (mice, rats; vs control group)?
Answer: did not exceed that of the control group

Question: And the “response to subsequent treatment cycle” value (psoriasis; 12 days)?
Answer: made it possible to eliminate the main symptoms and led to a long-term remission of the main symptoms

Question: And the “residual pustules and papules” value (psoriasis; flexor parts of the hands)?
Answer: Individual pustules and papules on the flexor parts of the hands remained

Question: What about the “time to return of acute symptoms” value (psoriasis; human, in vivo) of the same compound?
Answer: 4 months

Question: And the clinical symptoms (psoriasis; intravenous, after 10 days of treatment)?
Answer: the itching and weakness disappeared, the temperature dropped and the skin symptoms disappeared

Question: And the “affected parts of the skin tissue” value (psoriasis; intravenous, day 20)?
Answer: the affected parts of the skin tissue had shrunk

Question: What about the “clinical picture of psoriasis” value (psoriasis patients; 12 to 20 mg/kg daily) of the same compound?
Answer: the itching disappeared, the temperature went down and the surface area of the affected zone shrunk

Question: And the “epithelization of the pustules” value (psoriasis patients; drug plus topical 4% solution in 10% DMSO)?
Answer: epithelization of the pustules occurred

Question: What about the clinical symptoms (generalized psoriasis; 20 mg/kg for 10 days) of the same compound?
Answer: elimination of the itching and a lessening of the skin symptoms

Question: What about the skin clearance (generalized psoriasis; after a 30-day treatment) of the same compound?
Answer: the skin was completely clear

Question: And the “number of neutrophils in the epidermal cells” value (generalized psoriasis; biopsy samples)?
Answer: considerable drop in the number of neutrophils in the epidermal cells

Question: What about the remission period (generalized psoriasis; human, in vivo) of the same compound?
Answer: 8 months

Question: And the “skin symptoms after topical application” value (generalized psoriasis; solution of the drug in 15% DMSO)?
Answer: led quickly to the disappearance of the skin symptoms, including the pustules

Question: And the “abnormality of the fetuses” value (female pregnant rats; single dose on days 1, 3, 7, 10, 14 and 17 of gestation)?
Answer: No abnormality of the fetuses was observed

Question: What about the “site of uterine attachment, number, weight and mortality of the fetuses” value (female pregnant rats; vs control group) of the same compound?
Answer: did not differ from those obtained for the control group

Question: And the “percentage of surviving animals” value [2]?
Answer: 60%

Question: What about the logD (physchem) of the same compound?
Answer: -0.699

Question: And the “effects of acute focal hypoxia” value (acute focal hypoxia; in a series of cases)?
Answer: it was possible to prevent the effects of acute focal hypoxia

Question: What about the “therapeutic effect by number of administrations” value (acute focal hypoxia; single vs two administrations at 12-hour intervals) of the same compound?
Answer: a single administration of the drug proved insufficient and the main therapeutic effect was obtained after two administrations

Question: And the local irritation (guinea pigs; 20 to 100 mg)?
Answer: no symptoms of local irritation

Question: What about the “erythema at the site of administration” value (guinea pigs; even large doses) of the same compound?
Answer: No erythema was observed at the site of administration

Question: What about the signs of allergy (guinea pigs; subcutaneously or orally) of the same compound?
Answer: No signs of allergy were observed

Question: What about the “extension of Hexenalum-induced sleep” value (Hexenalum-induced sleep) of the same compound?
Answer: did not cause a noteworthy extension of the Hexenalum-induced sleep

Question: What about the stability (anhydrous conditions) of the same compound?
Answer: stable in anhydrous conditions (can be preserved for over one year)

Question: What about the “stability in aqueous solutions” value (aqueous solutions) of the same compound?
Answer: sometimes unstable in aqueous solutions

Question: What about the “rejection process vs traditional therapy” value [3] of the same compound?
Answer: slowed the rejection process down considerably

Question: What about the “percentage of surviving animals” value ([4]; 30 mg/kg, p>0.05) of the same compound?
Answer: did not increase

Question: What about the “cases with symptoms of neurological impairment” value ([4]; 100 mg/kg intramuscular) of the same compound?
Answer: 3 cases

Question: What about the “effectiveness of intramuscular administration” value ([4]; 100 mg/kg intramuscular) of the same compound?
Answer: the intramuscular administration of the drug was not effective

Question: And the surviving animals ([4]; 100 mg/kg intramuscular)?
Answer: Six out of 10

Question: And the “cases without symptoms of neurological impairment” value ([4]; 100 mg/kg intravenous)?
Answer: 8 cases

Question: What about the surviving animals ([4]; 100 mg/kg intravenous) of the same compound?
Answer: 9 out of 10

Question: And the “cases with symptoms of damage to the central nervous system” value ([4]; 150 mg/kg)?
Answer: 2 cases

Question: And the surviving animals ([4]; 150 mg/kg)?
Answer: 80%

Question: And the “survival rate on further dose increase” value ([4]; above 100 mg/kg)?
Answer: did not lead to a reliable increase in the survival rate

Question: What about the “surviving animals without symptoms of neurological impairment” value ([4]; two administrations of 100 mg/kg, 12-hour interval) of the same compound?
Answer: 9 animals

Question: What about the “toxicity in animal organisms” value (animal organisms) of the same compound?
Answer: absence of toxicity

Question: What about the “pharmacological activity, anti-hypoxic and defensive action” value ([5]; doses of 10 to 300 mg/kg) of the same compound?
Answer: possess a pronounced pharmacological activity

Question: What about the therapeutic effects ([5]; in vivo) of the same compound?
Answer: major therapeutic effects

Question: What about the “reduction of induced convulsions” value [6] of the same compound?
Answer: did not reduce the induced convulsions

Question: What about the “prevention of Corazolum- and strychnine-induced convulsions” value ([6]; preventive administration) of the same compound?
Answer: did not prevent Corazolum- and strychnine-induced convulsions

Question: What about the “effectiveness vs hormonal drugs (corticosteroids)” value (transplant rejection) of the same compound?
Answer: exceeds the hormonal drugs with long-term action known thus far (corticosteroids)

Question: And the “inhibitory or mutagenic activity” value [7]?
Answer: does not posses inhibitory or mutagenic activity
